Where two headings read alike, the source gives them in different places. Square brackets hold non-standard residues; d marks the D form. Peptide text beside a SMILES is read from it. Phe(4-NO2) = N[C@@H](Cc1ccc([N+](=O)[O-])cc1)C(=O)O; Phe(4-Cl) = N[C@@H](Cc1ccc(Cl)cc1)C(=O)O; NMeR = CN[C@@H](CCCNC(=N)N)C(=O)O; Aoc = NCCCCCCCC(=O)O; Sar = CNCC(=O)O
Legend:
[1] = test system: Freund's Complete Adjuvant model of inflammatory nociception; conditions: rat, in vivo
[2] = Pharmacokinetic parameters after i.v. administration in rats; format: in vivo; conditions: rat; for half-life / clearance / Vd: iv, dose 0.3 mg/kg (SEQ ID NO. 19), 1 mg/kg (SEQ ID NO. 24); for clearance: read-out: CLtotal; for Vd: read-out: Vdss; for opioid-like adverse effects (e.g. respiratory depression, sedation): 0.3 mg/kg (SEQ ID NO 19), 1 mg/kg (SEQ ID NO 24)
Excerpt: Methods are as previously reported (Hill et al., ACS Med. Chem. Lett. 2014, 5(10), 1148-51; Lohman et al., Chem. Commun. (Camb), 2019, 55(89), 13362-13365; Neilsen et al., Org. Lett., 2012, 14(22), 5720-3; Neilsen et al, Chembiochem, 2015, 16(16), 2289-93; Justyna et al., Current Drug Targets, 2013, 14(7), 798-816)). Rats were surgically implanted with a jugular vein catheter (sterile polyethylene, o.d. 0.96 mm i.d. 0.58 mm, Microtube Extrusions, Aust.) and allowed to recover overnight. Baseline blood samples (t=0) were taken prior to peptide administration directly from the indwelling jugular vein catheter. Peptide was administered directly via the catheter (i.v route), followed by a 200 μL chaser volume of heparinised saline (20 U/mL) to flush the line. Further blood samples (200 μL/sample) were collected directly from the intravenous catheter at t=1, 5 15, 30, 60, 90 120 as 180 minutes post-administration. Volumes taken were replaced with heparinised saline to avoid hypovolaemia. Blood samples were immediately centrifuged (14 k rpm, 5 min) and plasma supernatant snap frozen on dry ice for later processing. Plasma samples were thawed and diluted 1 in 4 acetonitrile, vortexed, sonicated and centrifuged. Supernatants were transferred to HPLC vials for LCMS analysis.
A Triple Quad Mass-Spectrometer (model 6460, Agilent Technologies) coupled to a Bidentate C18 HPLC column (Cogent, 100 Å, 4 μM) was used to analyse all samples. Separations were carried out using a binary solvent gradient. A Multiple Reaction Monitoring (MRM) protocol was developed for each individual peptide to maximise sensitivity of the Mass-spec and optimise the Limit of Detection (LOD) from a serially diluted standard curve, performed in both acetonitrile solvent and neat rat plasma.
Samples were analysed using MassHunter Software packages, and area under the curve (AUC) was measured for each peak of interest in the MRM, as a direct measure of concentration of compound ions in the sample. AUCs were converted to plasma concentrations (Cp; μg/mL and μM) using the standard curves generated in plasma. Data was analysed using MS Excel software. A two compartment model was adopted to determine the pharmacokinetic properties of each peptide in the rat. The first phase describes the distribution throughout the circulatory compartment, and the second phase describes the elimination/steady state concentration in plasma/tissue. Plasma half-life, volume of distribution and clearance were determined from the steady-state elimination phase.

KOR [3] = biological target: T1, KOR (Homo sapiens, UniProt P41145); assay: biochemical; format: binding
KOR [4] = biological target: T1, KOR; assay: cell-based; format: cell-based
[5] = biological target: Kappa opioid receptor (KOR) (Homo sapiens, UniProt P41145); assay: cell-based; format: cell-based
KOPr = KOPr (Homo sapiens, UniProt P41145); format: cell-based
Mu opioid receptor (MOR) = Mu opioid receptor (MOR) (Homo sapiens, UniProt P35372); assay: cell-based; format: cell-based
[6] = biological target: Delta opioid receptor (DOR) (Homo sapiens, UniProt P41143); assay: cell-based; format: cell-based
Stability in rat plasma = format: in vitro ADME; conditions: both sexes, Wistar, 37° C., 100 μM peptide
Experimental: Stability in plasma was assessed in rat plasma. Plasma was collected in-house from adult mixed-gender Wistar rats, prepared using 2% EDTA as per standard practice. Peptides were added to the rat plasma samples at 37° C. in a water bath with final concentrations of 100 μM (1:9 peptide in water:plasma). The assay was then carried out in the same manner as the assay in bovine trypsin.

[7] = biological target: T2, bovine pancreatic trypsin (Bos taurus, UniProt P00760); assay: Stability in bovine trypsin; format: in vitro ADME; conditions: bovine pancreatic trypsin 2.5 μg/mL, NH4HCO3 buffer pH 8-8.5, 37° C., 100 μM peptide
T2 construct: from tissue; host or cells: bovine pancreas
T2 sequence (P00760 24-246): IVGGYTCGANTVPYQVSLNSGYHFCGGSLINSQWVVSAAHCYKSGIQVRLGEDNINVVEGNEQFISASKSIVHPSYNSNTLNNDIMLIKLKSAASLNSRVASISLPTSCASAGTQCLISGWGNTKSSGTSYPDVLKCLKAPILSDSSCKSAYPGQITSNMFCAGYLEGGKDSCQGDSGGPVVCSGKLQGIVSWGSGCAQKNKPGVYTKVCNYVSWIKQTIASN
Experimental: The stability of the peptides was analysed in typsin, plasma and water. Stability of linear peptides is generally low due to rapid degradation by endogenous peptidases and proteases. While stability in bodily fluids is important, absolute stability may not be prudent or desirable due to potential build-up in vivo leading to adverse side effects, and/or hazards to the environment and recirculation of exceptionally stable compounds in waterways. Thus, compounds that are extremely stable in either plasma or typsin are not generally considered “drug-like”.
Stability in bovine trypsin was analysed for SEQ ID Nos. 2 to 7 and 11 to 17. Peptides were added to trypsin solution (bovine pancreatic trypsin 2.5 μg/mL in NH4HCO3 buffer, pH approximately 8-8.5, 37° C.) in a water bath with final concentrations of 100 μM peptide. A 50 μL sample was taken immediately and precipitated in 150 μL of cold acetonitrile (9:1 acetonitrile:water) This sample became the baseline, or t=0 min sample. The trypsin peptide mixture was immediately returned to the water bath and subsequent 50 μL samples were taken at 5, 10, 15, 30, 60 and 120 min. At each time point, the 50 μL sample was collected and immediately added to cold acetonitrile (ACN). Each sample was vortexed for 30 sec and then centrifuged at room temperature (RT) (13K rpm, 5 min). 150 μL of the supernatant was taken and directly place in a glass HPLC vial for LCMS analysis.

[8] = read-out: Activity (EC50, nM) KOR

Mu opioid receptor (MOR), sequence (P35372 whole entry): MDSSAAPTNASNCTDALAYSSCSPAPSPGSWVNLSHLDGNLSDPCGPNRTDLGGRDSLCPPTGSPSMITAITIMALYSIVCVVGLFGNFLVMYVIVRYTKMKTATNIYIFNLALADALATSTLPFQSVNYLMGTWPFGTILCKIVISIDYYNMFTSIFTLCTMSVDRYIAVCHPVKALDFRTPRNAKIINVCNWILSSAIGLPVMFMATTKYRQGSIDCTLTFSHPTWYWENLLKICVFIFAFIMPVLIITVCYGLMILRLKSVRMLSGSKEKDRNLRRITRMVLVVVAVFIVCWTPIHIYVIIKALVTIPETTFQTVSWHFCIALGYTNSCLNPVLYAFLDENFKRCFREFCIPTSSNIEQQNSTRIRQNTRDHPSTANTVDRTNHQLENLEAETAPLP
Delta opioid receptor (DOR), sequence (P41143 whole entry): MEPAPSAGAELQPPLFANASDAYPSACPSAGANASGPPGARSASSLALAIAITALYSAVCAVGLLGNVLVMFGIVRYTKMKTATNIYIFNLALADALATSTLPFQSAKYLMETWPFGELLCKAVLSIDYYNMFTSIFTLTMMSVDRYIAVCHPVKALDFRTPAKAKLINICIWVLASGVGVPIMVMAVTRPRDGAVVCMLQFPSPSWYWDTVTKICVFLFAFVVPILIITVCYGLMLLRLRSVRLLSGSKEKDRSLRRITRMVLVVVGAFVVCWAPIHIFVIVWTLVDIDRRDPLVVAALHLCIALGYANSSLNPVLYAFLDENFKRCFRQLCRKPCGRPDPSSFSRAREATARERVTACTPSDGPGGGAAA
T1 sequence (P41145 whole entry): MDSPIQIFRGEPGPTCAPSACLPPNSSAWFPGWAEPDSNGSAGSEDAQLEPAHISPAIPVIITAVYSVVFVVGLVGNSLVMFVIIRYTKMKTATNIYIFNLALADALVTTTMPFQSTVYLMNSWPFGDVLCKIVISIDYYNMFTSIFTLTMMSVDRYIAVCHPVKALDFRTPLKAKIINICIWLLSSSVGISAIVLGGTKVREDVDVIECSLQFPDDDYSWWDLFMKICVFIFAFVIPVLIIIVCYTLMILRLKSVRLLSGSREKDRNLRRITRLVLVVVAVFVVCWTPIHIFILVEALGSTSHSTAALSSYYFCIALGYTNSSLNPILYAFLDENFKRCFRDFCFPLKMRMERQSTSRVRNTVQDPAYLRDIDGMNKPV
Kappa opioid receptor (KOR), sequence (P41145 whole entry): as above
KOPr, sequence (P41145 whole entry): as above

SMILES | Area under the curve (AUC) efficacy compared to U50488H [1] | Efficacy Index (Ie) relative to morphine [1] | opioid-like adverse effects (e.g. respiratory depression, sedation) [2] | IC50 (KOR [3]; read-out: IC50) [nM] | Ki (KOR [3]; read-out: Ki) [nM] | KOR desensitisation (change of cAMP maximal response after pre-treatment) (KOR [4]) | cAMP activity in the presence of naloxone, KOR cells [5] | EC50 [5, 8] [nM] | bias factor (β) relative to U50488H (KOPr) | pERK1/2 activity (KOPr) | EC50 (Mu opioid receptor (MOR)) [nM] | EC50 [6] [nM] | EC50 [5] [nM] | also measured
CC(C)C[C@H](NC(=O)[C@H](Cc1ccc([N+](=O)[O-])cc1)NC(=O)CN(C)C(=O)[C@@H](N)Cc1ccc(O)cc1)C(=O)N(C)[C@@H](CCCNC(=N)N)C(=O)N(C)[C@@H](CCCNC(=N)N)C(N)=O [SEQ ID NO. 19, NH2-Tyr-Sar-(4-NO2)Phe-Leu-NMA-NMA-NH2] (H-Y[Sar][Phe(4-NO2)]L[NMeR][NMeR]-NH2) | significantly better efficacy than U50488H | statistically significantly greater Ie over morphine | no sign of opioid-like adverse effects | 1950 | 180 | no sign of desensitisation | significantly inhibited | 31.1 | bias towards cAMP | failed to show any pERK activity |  |  |  | half-life ([2]; in vivo): 23.9 min; clearance ([2]; in vivo): 5.7 mL/min/kg; Vd ([2]; in vivo): 0.4 L/kg; Log IC50 (KOR [3]): −5.71
CC(C)C[C@H](NC(=O)[C@H](Cc1ccc([N+](=O)[O-])cc1)NC(=O)CN(C)C(=O)[C@@H](N)Cc1ccc(O)cc1)C(=O)N[C@@H](CCCNC(=N)N)C(=O)N(C)[C@@H](CCCNC(=N)N)C(N)=O [SEQ ID NO. 18, NH2-Tyr-Sar-(4-NO2)Phe-Leu-Arg-NMA-NH2] (H-Y[Sar][Phe(4-NO2)]LR[NMeR]-NH2) |  |  |  |  |  | no sign of desensitisation |  | 1.77 | bias towards cAMP | failed to show any pERK activity |  |  |  | 
CC[C@H](C)[C@H](NC(=O)[C@@H](CCCNC(=N)N)NC(=O)[C@H](CCCNC(=N)N)NC(=O)[C@H](CC(C)C)NC(=O)[C@H](Cc1ccc(Cl)cc1)NC(=O)CN(C)C(=O)[C@@H](N)Cc1ccc(O)cc1)C(=O)N[C@@H](CCCNC(=N)N)C(N)=O [SEQ ID NO. 20, NH2-Tyr-Sar-(4-Cl)Phe-Leu-Arg-DArg-Ile-Arg-NH2] |  |  |  |  |  |  | significantly inhibited |  |  |  | > 10000 | 3580 |  | reduction in maximal response after pre-treatment (KOR [4]; read-out: reduction in maximal response): ~50%
CC(C)C[C@H](NC(=O)[C@H](Cc1ccc([N+](=O)[O-])cc1)NC(=O)CN(C)C(=O)[C@@H](N)Cc1ccc(O)cc1)C(=O)N[C@@H](CCCNC(=N)N)C(=O)N[C@H](CCCNC(=N)N)C(N)=O [SEQ ID NO. 4, NH2-Tyr-Sar-(4-NO2)Phe-Leu-Arg-DArg-NH2] (H-Y[Sar][Phe(4-NO2)]LR[dR]-NH2) | significantly better efficacy than U50488H |  |  | 30.2 | 2.8 | no sign of desensitisation | significantly inhibited |  | bias towards cAMP | failed to show any pERK activity |  |  | 8.4 | half-life at 100 µM (Stability in rat plasma): 71 min; cAMP assay MOR 1 μM (Mu opioid receptor (MOR)): 0.17; cAMP assay MOR 10 μM (Mu opioid receptor (MOR)): 2.52; cAMP assay DOR 1 μM [6]: −0.75; cAMP assay DOR 10 μM [6]: 2.04; Half Life Trypsin [7]: 15.4 min; cAMP assay KOR 1 μM [5]: 34.93; cAMP assay KOR 10 μM [5]: 40.29
CC(C)C[C@H](NC(=O)[C@H](Cc1ccc(Cl)cc1)NC(=O)CN(C)C(=O)[C@@H](N)Cc1ccc(O)cc1)C(=O)N[C@@H](CCCNC(=N)N)C(=O)N[C@H](CCCNC(=N)N)C(=O)NCCCCCCCC(N)=O [SEQ ID NO. 24, NH2-Tyr-Sar-(4-Cl)Phe-Leu-Arg-DArg-C7H14-CONH2] (H-Y[Sar][Phe(4-Cl)]LR[dR][Aoc]-NH2) |  | statistically significantly greater Ie over morphine | No adverse effects were observed |  |  | modest desensitisation | significantly inhibited |  | bias towards cAMP | some influence over pERK induction | > 10000 | > 10000 | 3.87 | half-life ([2]; plasma): 12.8 min; clearance ([2]; plasma): 26.3 mL/min/kg; Vd ([2]; plasma): 1.7 L/kg; IC50 (KOR [3]): 72.6 nM; Ki (KOR [3]): 6.7 nM
CN1CC[C@]23c4c5ccc(O)c4O[C@H]2[C@@H](O)C=C[C@H]3[C@H]1C5 [Morphine, reference compound] |  |  |  |  |  |  |  |  |  |  |  |  |  | paw withdrawal threshold in the contralateral (uninflamed, untreated) paw at 120 minutes compared to baseline [1]: significantly reduced

Reference: patent publication US20240301023A1 (priority 2020, published 2024)
